From patent publication US11147818B2, “Combination therapies” (Infinity Pharmaceuticals, Inc., priority 2016, dated 2021) come the findings set out here.

Common to all, as to experiment: Combination study of Compound 1 with selinexor, ATPLite cell growth/viability, 9x9 dose matrix
Type in all cases: cell-based
What all share (settings): Compound 1 in combination with Selinexor, 72 hours
In general terms: Cellular ATP, detected with luciferase, serves as a proxy for viable cell number.

For one assay, the system named is H9 cell line. The method, then: (§1) The synergistic effects of compounds provided herein and another therapeutic agent were carried out. The method is described as follows. Cells were thawed from a liquid nitrogen preserved state. Once cells were expanded and divided at their expected doubling times, screening began. Cells were seeded in growth media in either black 1536-well or 384-well tissue culture treated plates. Cells were then equilibrated in assay plates via centrifugation and placed in incubators attached to the Dosing Modules at 37° C. for 24 hours before treatment. […] These Tzero (To) plates were read using ultra-sensitive luminescence on Envision plate readers (Perkin Elmer). Treated assay plates were incubated with compound for 72 hours. After 72 hours, plates were developed for endpoint analysis using ATPLite. All data points were collected via automated processes, quality controlled and analyzed using Zalicus software. Assay plates were accepted if they passed the following quality control standards: relative luciferase values were consistent throughout the entire experiment, Z-factor scores were greater than 0.6, untreated/vehicle controls behaved consistently on the plate.
Inhibition (I) is defined as I=(1−T/V)*100% where T is treated cell count and V is untreated (vehicle) cell count (at 72 hours). I ranges from 0% (when T=V) to 100% (when T=0). The IC50 value is defined as the drug concentration needed to inhibit 50% of the cell growth compared to growth of the vehicle treated cells (the drug concentration which gives I=50%). The measure of effect in the experiment can be the inhibition of cellular response relative to the untreated level (vehicle alone). For untreated vehicle and treated levels V and T, a fractional inhibition I=1-T/V is calculated. […] When activity ratios (e.g., fold increase over stimulated control) are being used, the effect can be measured using an induction I=ln(T/V). […]
Growth Inhibition (GI) is used as a measure of cell viability. The cell viability of vehicle is measured at the time of dosing (TO) and after 72 hours (T72). A GI reading of 0% represents no growth inhibition—T72 compound-treated and T72 vehicle signals are matched. A GI reading of 100% represents complete growth inhibition—T72 compound-treated and TO vehicle signals are matched. […] A GI reading of 200% represents complete death of all cells in the culture well. […] GI is calculated by applying the following test and equation: […]
Combination analysis data were collected in a 9×9 dose matrix. Synergy was calculated by comparing a combination's response to those of its single compound, against the drug-with-itself dose-additive reference model. Deviations from dose additivity may be assessed visually on an isobologram or numerically with a Combination Index (CI). […]

The next assay relates to HuT 102 cell line. Here is the method: as §1
(§2) Inhibition (I) is defined as I=(1−T/V)*100% where T is treated cell count and V is untreated (vehicle) cell count (at 72 hours). I ranges from 0% (when T=V) to 100% (when T=0). The IC50 value is defined as the drug concentration needed to inhibit 50% of the cell growth compared to growth of the vehicle treated cells (the drug concentration which gives I=50%). The measure of effect in the experiment can be the inhibition of cellular response relative to the untreated level (vehicle alone). For untreated vehicle and treated levels V and T, a fractional inhibition I=1-T/V is calculated. The inhibition ranges from 0% at the untreated level to 100% when T=0. Inhibition levels are negative for agents that actually increase levels. Other effect measures, such as an activity ratio r=T/V may be more appropriate for some assays. When activity ratios (e.g., fold increase over stimulated control) are being used, the effect can be measured using an induction I=ln(T/V). With this definition, all effect expressions are the same as for inhibition.
(§3) Growth Inhibition (GI) is used as a measure of cell viability. The cell viability of vehicle is measured at the time of dosing (TO) and after 72 hours (T72). A GI reading of 0% represents no growth inhibition—T72 compound-treated and T72 vehicle signals are matched. A GI reading of 100% represents complete growth inhibition—T72 compound-treated and TO vehicle signals are matched. […] A GI reading of 200% represents complete death of all cells in the culture well. Compounds reaching an activity plateau of GI 200% are considered cytotoxic. GI is calculated by applying the following test and equation:
(§4) [formula] [formula] where T is the signal measure for a test article, V is the vehicle-treated control measure, and Vo is the vehicle control measure at time zero. This formula is derived from the Growth Inhibition calculation used in the National Cancer Institute's NCI-60 high-throughput screen.
(§5) Combination analysis data were collected in a 9×9 dose matrix. Synergy was calculated by comparing a combination's response to those of its single compound, against the drug-with-itself dose-additive reference model. Deviations from dose additivity may be assessed visually on an isobologram or numerically with a Combination Index (CI). See the tables below for CI at 50% inhibition and CI at 50% growth inhibition. Additive effect is CI=1.0. Synergistic effect is CI<1. Antagonistic effect is CI>1.0.
(§6) To measure combination effects in excess of Loewe additivity, a scalar measure to characterize the strength of synergistic interaction termed the Synergy Score was devised. […]

A further assay has as its system HuT 78 cell line. The method, then:
as §1, §2, §3, §4, §5, §6

The subject of the next assay is MJ (G11) cell line. The method, then: as §1, §2, §3, §4, §5, §6
In a further assay the test system is HH cell line. The method, then: as §1, §2, §3, §4, §5, §6

For the compound `O=C(/C=C\n1cnc(-c2cc(C(F)(F)F)cc(C(F)(F)F)c2)n1)NNc1cnccn1` [Selinexor, (Z)-3-(3-(3,5-bis(trifluoromethyl)phenyl)-1H-1,2,4-triazol-1-yl)—N′-(pyrazin-2-yl)acrylohydrazide], the CI50 growth inhibition entry in the assay with H9 cell line is on record as “A3 (A3=>3)”; with HuT 78 cell line, “A3 (A3=>3)”; in the assay on MJ (G11) cell line it was “A3 (A3=>3)”; in the assay on HH cell line, “A2 (A2=1 to <3)”. Further, the CI50 inhibition result is on record as “A3 (A3=>3)” in the assay on H9 cell line; “A1 (A1=0.0001 to <1)” in the assay on HuT 102 cell line; “A2 (A2=1 to <3)” in the assay with HuT 78 cell line; “A2 (A2=1 to <3)” in the assay with MJ (G11) cell line; “A2 (A2=1 to <3)” in the assay with HH cell line. Moreover, the “Synergy Score growth inhibition” value in the assay on H9 cell line stood at 10.4; with HuT 78 cell line it was 5.85; in the assay with MJ (G11) cell line it was 4.50; in the assay with HH cell line, 1.53. The “Synergy Score inhibition” value in the assay with H9 cell line is reported as 3.23; with HuT 102 cell line it was 0.82; in the assay with HuT 78 cell line, 1.94; with MJ (G11) cell line, 1.50; in the assay on HH cell line, 1.25.
